Reference: patent publication US8227489B2, “N-(aminoheteroaryl)-1H-indole-2-carboxamide derivatives, preparation thereof and therapeutic use thereof” (Sanofi-Aventis, priority 2006, dated 2012)
Where a name gives a salt, the structure may show the parent alone.

Key:
TRPV1 receptors = biological target: T1, TRPV1 receptors (Mus musculus, UniProt Q704Y3); assay: Mouse corneal irritation test (capsaicin-induced); assay type: in vivo; conditions: compound 500 μM, 2 μl local application on cornea 10 minutes before 160 μM capsaicin
T1 construct: from tissue; host or cells: cornea of the living mouse (in vivo)
Description: Mouse Corneal Irritation Test
The irritating nature of capsaicin is easily assessed on the cornea since this organ is one of the most innervated by C fibers. In this context, according to preliminary experiments, the application of a very small amount of capsaicin (2 μl at a concentration of 160 μM) at the surface of the cornea of an animal results in a number of kinds of stereotyped behavior related to irritation which are easy to record. These include: blinking of the eye, rubbing of the instilled eye by the ipsilateral front paw, rubbing of the face with the two front paws and scratching of the ipsilateral face by the hind paw. […] Its appearance is furthermore also normal. […] It may be concluded therefrom that the duration of action of capsaicin at these doses is less than 2 minutes.
Summary of the Methodology: […]
In practice, the test product, prepared at 25 mM in DMSO and diluted for its final use in physiological saline with 10% Tween 80 to the stronger concentration of 500 μM, is administered in local application at the surface of the cornea under a volume of 2 μl, 10 minutes before the application of the capsaicin. […] During observation for 2 minutes following the instillation, the number of rubbing actions on the instilled eye by the ipsilateral front paw is counted for each animal.
For a given group, the percentage of protection is calculated as follows: […]

TRPV1 receptor = biological target: T2, TRPV1 receptor (Rattus norvegicus, UniProt O35433); assay: Inhibition of the current induced by capsaicin with regard to rat DRGs (whole cell patch clamp); assay type: cell-based; conditions: DRG neuron, capsaicin 1 microM response, rat DRG neurons, read-out: % Inhibition by the DRG patch technique; for inhibition at 0.001 µM: compound at 1 nM; for inhibition at 0.01 µM: compound at 10 nM
T2 construct: The neurons of the DRG naturally express the TRPV1 receptor; endogenous in cells; host or cells: primary culture of newborn rat dorsal root ganglion neurons
Description: Test of the Inhibition of the Current Induced by Capsaicin with Regard to Rat DRGs
• Primary culture of rat dorsal root ganglion (DRG) cells:
The neurons of the DRG naturally express the TRPV1 receptor.
Primary cultures of DRGs of newborn rats are prepared from one-day-old rats. Briefly, after dissection, the ganglions are trypsinized and the cells dissociated mechanically by gentle trituration. The cells are resuspended in an Eagle's basal culture medium comprising 10% of fetal calf serum, 25 mM KCl, 2 mM glutamine, 100 μg/ml of gentamicin and 50 ng/ml of NGF and then deposited on glass cover slips covered with laminin (0.25×10^6 cells per cover slip) which are subsequently placed in 12-well Corning dishes. The cells are incubated at 37° C. in a humidified atmosphere comprising 5% of CO2 and 95% of air. Cytosine β-D-arabinoside (1 μM) is added 48 h after culturing, in order to prevent the growth of non-neuronal cells. After culturing for 7-10 days, the cover slips are transferred into experimental chambers for the patch clamp studies.
The measurement chambers (volume 800 μl) comprising the cell preparation are placed on the stage of an inverted microscope (Olympus IMT2) equipped with Hoffman optics (Modulation Contrast, New York) and are observed at a magnification of 400×. The chambers are continuously perfused by gravity (2.5 ml/min) using a distributor of solutions which has 8 inlets, the single outlet of which, composed of a polyethylene tube (opening 500 μm), is placed at least 3 mm from the cell studied. The “whole cell” configuration of the patch clamp technique was used. Borosilicate glass pipettes (resistance 5-10 Mohms) are brought close to the cell using a 3D piezoelectric micromanipulator (Burleigh, PC1000). The overall currents (membrane potential set at −60 mV) are recorded with an Axopatch 1D amplifier (Axon Instruments, Foster City, Calif.) connected to a PC controlled by Pclamp8 software (Axon Instruments). The current plots are recorded on paper and simultaneously recorded digitally (sampling frequency 15 to 25 Hz) and acquired on the hard disk of the PC.
The application of a micromolar capsaicin solution produces an incoming cationic current with regard to the DRG cells (voltage set at […]). In order to minimize the desensitization of the receptors, a minimum interval of one minute between two applications of capsaicin is observed. After a control period (stabilization of the capsaicin alone response), the test compounds are applied alone at a given concentration (concentration of 10 nM or […]) for a period of time of 4 to 5 minutes, during which several capsaicin+compound tests are carried out (obtaining the maximum inhibition). The results are expressed as % of inhibition of the control capsaicin response.

T2 sequence (O35433 whole entry): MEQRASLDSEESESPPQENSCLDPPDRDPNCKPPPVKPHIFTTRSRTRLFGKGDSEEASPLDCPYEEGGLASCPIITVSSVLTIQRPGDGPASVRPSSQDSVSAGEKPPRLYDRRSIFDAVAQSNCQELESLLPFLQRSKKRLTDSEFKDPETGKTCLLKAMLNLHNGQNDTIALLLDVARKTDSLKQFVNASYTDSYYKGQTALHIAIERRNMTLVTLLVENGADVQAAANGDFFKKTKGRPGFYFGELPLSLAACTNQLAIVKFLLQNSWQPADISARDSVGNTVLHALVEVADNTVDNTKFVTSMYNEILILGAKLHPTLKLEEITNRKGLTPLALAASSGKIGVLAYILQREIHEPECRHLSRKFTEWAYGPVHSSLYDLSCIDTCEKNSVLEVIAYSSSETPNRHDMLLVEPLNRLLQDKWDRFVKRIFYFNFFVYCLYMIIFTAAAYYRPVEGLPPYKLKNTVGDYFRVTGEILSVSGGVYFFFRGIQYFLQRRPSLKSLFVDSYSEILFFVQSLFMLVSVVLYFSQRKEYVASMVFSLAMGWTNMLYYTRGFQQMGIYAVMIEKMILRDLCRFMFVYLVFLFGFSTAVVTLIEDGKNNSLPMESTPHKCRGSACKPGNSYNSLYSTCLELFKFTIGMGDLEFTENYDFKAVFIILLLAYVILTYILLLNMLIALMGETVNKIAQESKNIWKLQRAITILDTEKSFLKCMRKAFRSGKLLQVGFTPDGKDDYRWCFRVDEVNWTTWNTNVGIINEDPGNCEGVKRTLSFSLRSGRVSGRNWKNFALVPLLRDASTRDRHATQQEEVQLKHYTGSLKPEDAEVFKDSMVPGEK
T1 sequence (Q704Y3 whole entry): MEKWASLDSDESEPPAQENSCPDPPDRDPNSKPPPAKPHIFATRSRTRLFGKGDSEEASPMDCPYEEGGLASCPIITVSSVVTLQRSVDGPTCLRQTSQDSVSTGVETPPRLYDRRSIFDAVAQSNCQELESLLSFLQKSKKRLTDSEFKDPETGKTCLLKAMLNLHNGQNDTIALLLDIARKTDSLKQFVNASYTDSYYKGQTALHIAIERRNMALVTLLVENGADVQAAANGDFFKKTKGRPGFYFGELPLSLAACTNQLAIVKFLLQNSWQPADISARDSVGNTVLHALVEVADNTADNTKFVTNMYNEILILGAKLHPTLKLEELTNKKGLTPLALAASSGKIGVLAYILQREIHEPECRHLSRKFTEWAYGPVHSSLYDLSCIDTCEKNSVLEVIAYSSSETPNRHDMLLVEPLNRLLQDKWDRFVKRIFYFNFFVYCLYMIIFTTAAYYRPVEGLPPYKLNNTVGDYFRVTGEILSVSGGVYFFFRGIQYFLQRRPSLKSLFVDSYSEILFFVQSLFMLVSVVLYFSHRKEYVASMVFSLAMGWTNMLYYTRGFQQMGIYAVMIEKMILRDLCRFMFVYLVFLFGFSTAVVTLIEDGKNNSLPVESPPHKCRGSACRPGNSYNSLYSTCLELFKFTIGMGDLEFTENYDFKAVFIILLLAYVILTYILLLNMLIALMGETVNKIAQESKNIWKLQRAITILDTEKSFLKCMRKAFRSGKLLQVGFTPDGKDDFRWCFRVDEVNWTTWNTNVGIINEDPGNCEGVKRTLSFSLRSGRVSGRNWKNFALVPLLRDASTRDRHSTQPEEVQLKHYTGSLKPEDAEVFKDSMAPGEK

melting point	SMILES	other results
252 to 254 °C	CC(=O)Nc1ccc(NC(=O)c2cc3cc(F)ccc3n2Cc2cccc(F)c2)cn1	–
183 to 185 °C	Cc1cc(N(C)C)ncc1NC(=O)c1cc2cc(F)ccc2n1Cc1cccc(F)c1	–
215 to 217 °C	CNc1cc(C)c(NC(=O)c2cc3cc(F)ccc3n2Cc2cccc(F)c2)cn1	–
145 to 146 °C	Cc1cc(NC(=O)c2cc3cc(F)ccc3n2Cc2cccc(F)c2)cnc1N(C)C	–
232 to 234 °C	CN(C)c1ccc(NC(=O)c2cc3cc(F)ccc3n2Cc2cccc(F)c2)cn1.Cl	–
142 to 143 °C	CN(C)c1ncc(NC(=O)c2cc3cc(F)ccc3n2Cc2cccc(F)c2)cc1C(F)(F)F	–
158 to 159 °C	CN(C)c1ncc(NC(=O)c2cc3cc(F)ccc3n2Cc2cccc(F)c2)cc1F	–

More lines, now with the values behind:

SMILES	melting point	other results
CC(=O)Nc1ccc(NC(=O)c2cc3ccc(C(F)(F)F)cc3n2Cc2cccc(F)c2)cn1	293 to 295 °C	–
CNc1cc(C)c(NC(=O)c2cc3cc(F)ccc3n2Cc2ccncc2)cn1	218 to 220 °C	–
CNc1ccc(NC(=O)c2cc3cc(F)ccc3n2Cc2cccc(F)c2)c(C)n1	229 to 230 °C	–
CN(C)C1=CNN(NC(=O)c2cc3cc(C(F)(F)F)ccc3n2Cc2cccc(F)c2)C=C1	138 to 139 °C	–
CN(C)C1=CNN(NC(=O)c2cc3ccc(C(F)(F)F)cc3n2Cc2cccc(F)c2)C=C1	255 to 267 °C	–
CN(C)C1=CNN(NC(=O)c2cc3cc(C(F)(F)F)ccc3n2Cc2ccncc2)C=C1.Cl	268 to 272 °C	–
CNc1ccc(NC(=O)c2cc3cc(F)ccc3n2Cc2ccncc2)cn1	220 to 222 °C	–
CN(C)C1=CNN(NC(=O)c2cc3cc(F)ccc3n2Cc2cccc(F)c2)C=C1 (as salt: hydrochloride)	239 to 241 °C	–
CNc1ccc(NC(=O)c2cc3cc(F)ccc3n2Cc2cccc(F)c2)cn1 [Compound 1, N-[6-(methylamino)pyridin-3-yl]-5-fluoro-1-(3-fluorobenzyl)-1H-indole-2-carboxamide]	225 to 227 °C	% P (percentage of protection) (TRPV1 receptors): 23%; inhibition at 0.001 µM (TRPV1 receptor): 53%
CN(C)c1ccc(NC(=O)c2cc3cc(C(F)(F)F)ccc3n2Cc2cccc(F)c2)cn1 [Compound 12, N-[6-(dimethylamino)pyridin-3-yl]-5-trifluoromethyl-1-(3-fluorobenzyl)-1H-indole-2-carboxamide]	–	inhibition at 0.001 µM (TRPV1 receptor): 100%
Cc1cc(N(C)C)ncc1NC(=O)c1cc2cc(F)ccc2n1Cc1ccncc1 [Compound 17, N-[6-dimethylamino-4-methylpyridin-3-yl]-5-fluoro-1-(pyridin-4-ylmethyl)-1H-indole-2-carboxamide]	217 to 219 °C	inhibition at 0.01 µM (TRPV1 receptor): 60%
Cc1cc(NC(=O)c2cc3cc(F)ccc3n2Cc2ccncc2)cnc1N(C)C [Compound 19, N-[6-dimethylamino-5-methylpyridin-3-yl]-5-fluoro-1-(pyridin-4-ylmethyl)-1H-indole-2-carboxamide]	164 to 165 °C	inhibition at 0.01 µM (TRPV1 receptor): 33%
